The source of these data is PMC4886613 (Journal of natural products, 2009).

What all share (type): cell-based
Assay [1] deals with culture of Leishmania donovani. Put plainly: in vitro antileishmanial activity. The settings on record: in words.
The subject of the next assay is Plasmodium falciparum. Put plainly: antimalarial activity. The settings on record: in words; clone not specified.
Assay [2] deals with Candida albicans ATCC 90028. In words: in vitro antifungal activity, Candida albicans. The following applies: ATCC90028, read-out: antifungal C. albicans IC50.
The test system of assay [3] is Plasmodium falciparum (D6 clone). Put plainly: in vitro antimalarial activity, D6 clone. The settings on record: D6, read-out: antimalarial P. falciparum D6 (IC50).
A further assay relates to P. falciparum (W2 clone). Put plainly: microbe, parasite or virus in culture. The settings on record: Plasmodium falciparum, W2, read-out: antimalarial P. falciparum W2 (IC50).

`CCCCCc1cc(O)c2c(c1OC(C)=O)OC(C)(CCC=C(C)C)C=C2` (racemic) [Compound 1, (±)-4-acetoxycannabichromene]: in assay [1], the antileishmanial activity entry is reported as “moderate antileishmanial activity”. Moreover, the antimalarial activities entry with Plasmodium falciparum is on record as “mild antimalarial activities”.

As for `C=C(C)C(O)CCC1(C)C=Cc2c(O)cc(CCCCC)cc2O1` (racemic) [Compound 2, (±)-3″-hydroxy-Δ^(4″,5″)-cannabichromene], in assay [1], the antileishmanial activity entry is “moderate antileishmanial activity”.

Turning to `CCCCCc1cc(O)c(C/C=C(\C)CCC=C(C)C)c(OC(C)=O)c1O` [Compound 5, 5-acetyl-4-hydroxycannabigerol], the antileishmanial activity entry in assay [1] is “strong antileishmanial activity”. Moreover, in the assay on Plasmodium falciparum, the antimalarial activities result was “mild antimalarial activities”.

Consider `CCCCCc1c(C/C=C(\C)CCC=C(C)C)c(O)cc(O)c1OC(C)=O` [Compound 6, 4-acetoxy-2-geranyl-5-hydroxy-3-n-pentylphenol], for which the antileishmanial activity entry in assay [1] is “moderate antileishmanial activity”.

As usually defined, the IC50 is the midpoint of a concentration-inhibition curve. For the molecule `C[C@@H]1[C@H](O)[C@@H](C)/C=C/C=C/C=C/C=C/C=C/C=C/C=C/[C@H](O[C@@H]2O[C@H](C)[C@@H](O)[C@H](N)[C@@H]2O)C[C@@H]2O[C@](O)(C[C@@H](O)C[C@@H](O)[C@H](O)CC[C@@H](O)C[C@@H](O)CC(=O)O[C@H]1C)C[C@H](O)[C@H]2C(=O)O` [amphotericin B], the IC50 in assay [2] was found to be 300 nM.

Turning to `CCN(CC)CCCC(C)Nc1ccnc2cc(Cl)ccc12` (stereo not drawn) [chloroquine], the half-inhibitory concentration (IC50) in assay [3] turned out to be 100 nM; with P. falciparum (W2 clone), 500 nM.
